Assay results from the CheMixHub ionic liquid set.

Assay: xn = mol fraction of the nth substance listed

[Cl-].[Li+] + CCCCCCCCn1cc[n+](C)c1.N#C[S-] + CN1CCCC1=O
298.15 K, 101 kPa
Conditions | viscosity [mPa·s]
x2 = 0, x1 = 0.03756 | 2.607
x2 = 0, x1 = 0.07175 | 3.558
x2 = 0, x1 = 0.1044 | 4.958

O=Cc1ccco1 + CCCC[P+](C)(CCCC)CCCC.COS(=O)(=O)[O-]
100 kPa
Conditions | viscosity [mPa·s]
293.15 K, x2 = 0.1 | 9
293.15 K, x2 = 0.191 | 41
293.15 K, x2 = 0.624 | 270
298.15 K, x2 = 0.062 | 2.33
298.15 K, x2 = 0.1 | 3.5
303.15 K, x2 = 0.191 | 6.7
303.15 K, x2 = 0.732 | 182
308.15 K, x2 = 0.142 | 4
308.15 K, x2 = 0.317 | 12.6
308.15 K, x2 = 0.624 | 58
313.15 K, x2 = 0 | 1.17
313.15 K, x2 = 0.1 | 2.6
318.15 K, x2 = 0.062 | 1.64
318.15 K, x2 = 0.142 | 3.5
318.15 K, x2 = 0.249 | 5.7
318.15 K, x2 = 0.499 | 20.5
323.15 K, x2 = 0.191 | 4
323.15 K, x2 = 0.249 | 4.7

CCOS(=O)(=O)[O-].CC[N+]1(C)CCOCC1 + O
101 kPa
Conditions | viscosity [mPa·s]
313.15 K, x2 = 0.193 | 750
333.15 K, x2 = 0.3681 | 81
333.15 K, x2 = 0.7786 | 6.7
343.15 K, x2 = 0.6835 | 9.5

CCCCCCCCCCCCCC[P+](CCCCCC)(CCCCCC)CCCCCC.O=S(=O)([N-]S(=O)(=O)C(F)(F)F)C(F)(F)F + CCC[N+]1(C)CCCC1.O=S(=O)([N-]S(=O)(=O)C(F)(F)F)C(F)(F)F
Conditions | electrical conductivity [S/m]
293.15 K, 101 kPa, x1 = 1 | 0.00719

CCOP(=O)([O-])OCC.CC[n+]1ccn(C)c1 + CC(C)O + O
100 kPa
Conditions | viscosity [mPa·s]
298.15 K, x2 = 0.299, x3 = 0.3 | 79
313.15 K, x2 = 0.199, x3 = 0.2008 | 90
323.15 K, x2 = 0.099, x3 = 0.0998 | 94
323.15 K, x2 = 0.15, x3 = 0.1498 | 76

Fc1ccccn1 + Fc1cccc[nH+]1.O=S(=O)([O-])C(F)(F)F
100 kPa
Conditions | electrical conductivity [S/m]
242.8 K, x1 = 0.9 | 0.096
252.7 K, x1 = 0.9 | 0.144
262.8 K, x1 = 0.5 | 0.0069
282 K, x1 = 0.95 | 0.497
282.5 K, x1 = 0.5 | 0.023
282.5 K, x1 = 0.9 | 0.576
286.9 K, x1 = 0.95 | 0.564
292.7 K, x2 = 0.01 | 0.174
301.5 K, x1 = 0.9 | 0.75

CCCCO + CC[n+]1ccn(CCOC)c1.N#C[S-]
100 kPa, x2 = 0
Conditions | viscosity [mPa·s]
288.15 K | 3.36
293.15 K | 2.94
298.15 K | 2.58
303.15 K | 2.27
308.15 K | 2.01
313.15 K | 1.78
318.15 K | 1.585

FC(F)C(F)(F)OCC(F)(F)C(F)(F)C(F)(F)C(F)F + CCCC[N+]1(C)CCCC1.FC(F)(F)C(F)(F)[P-](F)(F)(F)(C(F)(F)C(F)(F)F)C(F)(F)C(F)(F)F
101 kPa
Conditions | electrical conductivity [S/m] | viscosity [mPa·s]
298.1 K, x2 = 0 | – | 2.5
298.1 K, x2 = 0.12 | 0.18 | –
298.1 K, x2 = 0.191 | – | 7.43
298.1 K, x2 = 0.194 | 0.257 | –
298.1 K, x2 = 0.272 | 0.28 | –
298.1 K, x2 = 0.363 | 0.306 | –
298.1 K, x2 = 0.454 | 0.291 | –
298.1 K, x2 = 0.456 | – | 25.4
298.1 K, x2 = 0.564 | 0.241 | –
298.1 K, x2 = 0.694 | 0.182 | 65.6
298.1 K, x2 = 0.847 | – | 117.9
298.1 K, x2 = 0.853 | 0.161 | –
303 K, x2 = 0.12 | 0.199 | –
303 K, x2 = 0.123 | – | 4.63
303 K, x2 = 0.194 | 0.29 | –
303 K, x2 = 0.269 | 0.32 | –
303 K, x2 = 0.359 | 0.35 | –
303 K, x2 = 0.361 | – | 14.13
303 K, x2 = 0.457 | 0.335 | –
303 K, x2 = 0.567 | 0.288 | 32.7
303 K, x2 = 0.694 | 0.23 | –
303 K, x2 = 0.847 | – | 91.9
303 K, x2 = 0.85 | 0.198 | –
308.1 K, x2 = 0 | – | 2.12
308.1 K, x2 = 0.123 | 0.217 | –
308.1 K, x2 = 0.191 | 0.32 | –
308.1 K, x2 = 0.272 | 0.36 | –
308.1 K, x2 = 0.273 | – | 8.09
308.1 K, x2 = 0.366 | 0.401 | –
308.1 K, x2 = 0.456 | – | 17.2
308.1 K, x2 = 0.463 | 0.39 | –
308.1 K, x2 = 0.564 | 0.343 | –
308.1 K, x2 = 0.691 | 0.27 | –
308.1 K, x2 = 0.847 | 0.234 | 71.6
313 K, x2 = 0.058 | – | 2.88
313 K, x2 = 0.123 | 0.239 | –
313 K, x2 = 0.197 | 0.356 | –
313 K, x2 = 0.272 | 0.412 | –
313 K, x2 = 0.359 | 0.449 | –
313 K, x2 = 0.361 | – | 11.01
313 K, x2 = 0.46 | 0.442 | –
313 K, x2 = 0.57 | 0.387 | –
313 K, x2 = 0.691 | 0.322 | –
313 K, x2 = 0.694 | – | 33.7
313 K, x2 = 0.847 | – | 60.6
313 K, x2 = 0.85 | 0.289 | –
318.1 K, x2 = 0 | – | 1.65
318.1 K, x2 = 0.12 | – | 3.41
318.1 K, x2 = 0.123 | 0.261 | –
318.1 K, x2 = 0.194 | 0.389 | –
318.1 K, x2 = 0.271 | 0.452 | –
318.1 K, x2 = 0.362 | 0.5 | –
318.1 K, x2 = 0.45 | 0.504 | –
318.1 K, x2 = 0.456 | – | 13.04
318.1 K, x2 = 0.567 | 0.449 | –
318.1 K, x2 = 0.69 | 0.373 | –
318.1 K, x2 = 0.691 | – | 27.8
318.1 K, x2 = 0.844 | – | 49.9
318.1 K, x2 = 0.846 | 0.337 | –
323 K, x2 = 0 | – | 1.52
323 K, x2 = 0.119 | 0.283 | –
323 K, x2 = 0.19 | 0.43 | –
323 K, x2 = 0.195 | – | 4.04
323 K, x2 = 0.271 | 0.5 | –
323 K, x2 = 0.358 | – | 7.89
323 K, x2 = 0.359 | 0.558 | –
323 K, x2 = 0.453 | 0.566 | –
323 K, x2 = 0.563 | 0.508 | –
323 K, x2 = 0.567 | – | 15.44
323 K, x2 = 0.69 | 0.424 | –
323 K, x2 = 0.846 | 0.392 | –
323 K, x2 = 0.848 | – | 40
